These results are taken from PMC10537553, “Synthesis, DFT Study, and In Vitro Evaluation of Antioxidant Properties and Cytotoxic and Cytoprotective Effects of New Hydrazones on SH-SY5Y Neuroblastoma Cell Lines” (Pharmaceuticals, 2023).

A short description of data set [1]: ABTS radical scavenging assay. Format: biochemical. The conditions noted are these: for ABTS scavenging activity: 1 mg/mL in methanol, 10 min, 734 nm; for radical scavenging effect (in words): 1 mg/mL, structure-activity discussion of the ABTS/DPPH results. The procedure: During the 2,2′-azino-bis(3-ethylbenzothiazoline-6-sulphonic acid) (ABTS) assay, the discoloration of the initial color could be detected at 734 nm.
The ABTS radical tests were measured according to a modified method of Arnao et al.. The test solutions were dissolved in methanol (1 mg/mL) at ambient temperature. The radical cation of ABTS (ABTS^+•) was created by mixing 7 mmol/L solution of ABTS and 2.4 mmol/L solution of potassium persulphate, which were set to react for 14 h in the dark at room temperature. The working solutions consisted of 2 mL of the stock solution diluted in 50 mL of methanol with an absorbance of […] units at 734 nm. Then, 1 mL of the ABTS working solution was allowed to react with the title compounds for 10 min, with a subsequent absorbance determination. The inhibition percentages were evaluated by applying the same formula as the DPPH assay (4). ABTSscavenging activity = Abscontrol − Abssample/Abscontrol × 100%(4) where Abscontrol is the absorbance of the ABTS radical in methanol, and Abssample is the absorbance of the ABTS radical solution mixed with the sample.
A general note: The DPPH test is a chemical assay of radical scavenging.

A short description of data set [2]: MTT cell viability assay (cytotoxicity). The class given is cell-based, human. As to conditions: human, SH-SY5Y neuroblastoma cells, 1–500 μM, 24 h, MTT. The procedure:
(§1) The effects of the newly synthesized N-pyrrolyl-hydrazone derivatives on the cellular viability of neuronal SH-SY5Y cells were evaluated, and the corresponding IC50 values were calculated. In the current study, the cells were seeded at density 2 × 10^4 and were treated with the test compounds at concentrations 1–500 μM for 24 h.
(§2) Human neuroblastoma cell line SH-SY5Y was purchased from European Collection of Cell Cultures (ECACC, Salisbury, UK). SH-SY5Y cells were cultivated in an RPMI 1640 medium supplemented with 10% heat-inactivated FBS, 2 mM L-glutamine, and 1% antibiotics (penicillin/streptomycin). The cell line was incubated at 37 °C with 5% of CO2, and the culture’s medium was replaced with a time interval of 2–3 days.
(§3) The SH-SY5Y cells were plated for 24 h at 37 °C on 96-well plates at a density of 2 × 10^4 cells per well to confluence. After 24 h, the cells were treated with the compounds (1–500 μM). MTT assay was performed to measure the metabolic activity in living cells. The mitochondria succinate dehydrogenase system of living cells metabolized yellow-colored, water-soluble, tetrazolium salt MTT (3-(4,5-dimethylthiazol2-yl)-2,5-diphenyltetrazolium bromide to a purple insoluble formazan crystal. The cells were incubated with the test solutions for 24 h, the MTT solution (10 mg/mL in PBS) was then added to each well, and the mixture was incubated at 37 °C for 3 h. Thereafter, the MTT solution was carefully aspirated, and the obtained formazan crystals were dissolved by the addition of […] DMSO. The cell viability was determined by measuring the optical density −570–690 nm in a multiplate reader Synergy 2 (BioTek Instruments, Inc., Highland Park, Winooski, VT, USA).
For orientation: Tetrazolium assays rely on reduction of a dye to a coloured formazan, in cell work by metabolically active cells.

Data set [3] has as its system SH-SY5Y cells. Nature of the data set: H2O2-induced oxidative stress model, protection by MTT. The class given is cell-based, human. As to conditions: H2O2 1 mM, 15 min; for protective effect against H2O2-induced oxidative stress (in words): 1, 10, 20 µM pre-incubation 90 min; for protection at the lowest tested concentration (in words): 1 µM pre-incubation 90 min. The procedure:
The cells were pre-incubated with the tested compounds at concentrations 1, 10, and 20 µM for 90 min. Melatonin was used as a reference compound because of its well-established neuroprotective effects in various in vitro and in vivo models. After 90 min pre-incubation with the test substances, SH-SY5Y cells were exposed to H2O2 (1 mM, 15 min), as described in the Materials and Methods section.
as §2
For the H2O2-induced oxidative stress model, SH-SY5Y cells were seeded in 96-well plates at a density of 3.5 × 10^4/well in 100 μL for 24 h. Afterwards, the cell medium was aspirated, and the cells were treated with different concentrations of tested compounds (1, 10, 20 µM) for 90 min; then, the SH-SY5Y cells were washed with phosphate-buffered saline (PBS) and were exposed to the oxidative stress (H2O2 1 mM in PBS, 15 min). The contents of all wells were changed with culture medium. After 24 h, the amount of attached viable cells was evaluated by MTT assay. Negative controls (cells without hydrogen peroxide treatment) were considered as 100% protection, and hydrogen-peroxide-treated cells as 0% protection.

The subject of data set [4] is SH-SY5Y cells. Nature of the data set: MTT cell viability assay (cytotoxicity). Format: cell-based, human. The procedure: as §1, §2, §3
The nature of data set [5]: DPPH radical scavenging assay. Format: biochemical. The conditions noted are these: 1 mg/mL in methanol, 30 min, 517 nm. Here is the method:
The 1,1-diphenyl-2-picrylhydrazyl (DPPH) radical scavenging activity of the newly synthesized derivatives was determined at one concentration—1 mg/mL. Trolox was used as a standard.
The scavenging assay of the title compounds against DPPH radical was carried out by the widely employed protocol of Brand-Williams et al.. Briefly, a single concentration of 1 mg/mL for each synthesized compound in methanol was obtained. Subsequent addition of 1 mL of the methanol solution of DPPH (1 mmol/L) was performed. The reaction mixtures were incubated in the dark for 30 min. The absorbance was measured at 517 nm. Three measurements were carried out for each sample; 6-Hydroxy-2,5,7,8- tetramethylchroman-2-carboxylic acid (Trolox) was applied as a standard. The percentage inhibition of the tested samples was calculated by the following Formula (3):DPPHscavenging activity = Abscontrol − Abssample/Abscontrol × 100%(3) where Abscontrol is the absorbance of the DPPH radical in methanol, and Abssample is the absorbance of the DPPH radical solution mixed with the sample.

In general, melting point refers to the temperature, or range, at which the solid turns liquid. As a reminder, the IC50 is the midpoint of a concentration-inhibition curve.

“Also recorded” adds a separate entry of the source.

The compound `CCOC(=O)c1cc(-c2ccc(Br)cc2)n(CC(=O)N/N=C/c2ccc(N(C)C)cc2)c1C` [7a, (E)-ethyl 5-(4-bromophenyl)-1-(2-(2-(4-(dimethylamino)benzylidene)hydrazinyl)-2-oxoethyl)-2-methyl-1H-pyrrole-3-carboxylate] yielded a melting point of 211.4 to 213.6 °C. This compound also registered an ABTS scavenging activity in data set [1] of 22%. In data set [2], the half-maximal inhibitory concentration (IC50) at 24 h was determined as 55.8 µM.

`CCOC(=O)c1cc(-c2ccc(Br)cc2)n(CC(=O)N/N=C/c2ccc(Cl)cc2)c1C` [7b, (E)-ethyl 5-(4-bromophenyl)-1-(2-(2-(4-chlorobenzylidene)hydrazinyl)-2-oxoethyl)-2-methyl-1h-pyrrole-3-carboxylate]: the melting point was 229.4 to 231.2 °C. In addition, the “radical scavenging effect (in words)” value in data set [1] is “negligible effect”. Besides, in data set [2], the IC50 at 24 h amounted to 67.6 µM.

Regarding `CCOC(=O)c1cc(-c2ccc(Br)cc2)n(CC(=O)N/N=C/c2ccc([N+](=O)[O-])cc2)c1C` [7c, (E)-ethyl 5-(4-bromophenyl)-2-methyl-1-(2-(2-(4-nitrobenzylidene)hydrazinyl)-2-oxo-ethyl)-1H-pyrrole-3-carboxylate], the melting point was 245.9 to 247.2 °C. In addition, the “protective effect against H2O2-induced oxidative stress (in words)” value (“protective effect” for short) in the data set on SH-SY5Y cells [3] was “most potent protection; also recorded: stronger protective effects”. For the same compound, in data set [2], the IC50 at 24 h was over 500 µM. Moreover, the “cytotoxicity (in words)” value with SH-SY5Y cells [4] (24 h) was “non-toxic”.

`CCOC(=O)c1cc(-c2ccc(Br)cc2)n(CC(=O)N/N=C/c2cc(OC)c(O)c(OC)c2)c1C` [7d, (E)-ethyl 5-(4-bromophenyl)-1-(2-(2-(4-hydroxy-3,5-dimethoxybenzylidene)hydrazine-yl)-2-oxoethyl)-2-methyl-1H-pyrrole-3-carboxylate] had a melting point of 191.9 to 194.4 °C. The compound also gave a DPPH scavenging activity in data set [5] of 24%. The ABTS scavenging activity in data set [1] turned out to be 83%. In addition, in the data set with SH-SY5Y cells [3], the “protection at the lowest tested concentration (in words)” value was “statistically significant protection” and the “protective effect” value is listed as “better protection in all tested concentrations than the reference compound melatonin; also recorded: stronger protective effects”. Moreover, the 50% inhibitory concentration (IC50) at 24 h in data set [2] was 99.6 µM.

In the case of `CCOC(=O)c1cc(-c2ccc(Br)cc2)n(CC(=O)N/N=C/c2ccc(OC)cc2OC)c1C` [7e, (E)-ethyl 5-(4-bromophenyl)-1-(2-(2-(2,4-dimethoxybenzylidene)hydrazinyl)-2-oxo-ethyl)-2-methyl-1H-pyrrole-3-carboxylate], the melting point is 206 to 207.6 °C. Further, the “radical scavenging effect (in words)” value in data set [1] was “lack of radical scavenging effects”. The “protection at the lowest tested concentration (in words)” value in the data set on SH-SY5Y cells [3] is “statistically significant protection”. The half-inhibitory concentration (IC50) at 24 h in data set [2] stood at 63.1 µM.

The compound `CCOC(=O)c1cc(-c2ccc(Br)cc2)n(CCC(=O)N/N=C/c2ccc(N(C)C)cc2)c1C` [8a, (E)-ethyl 5-(4-bromophenyl)-1-(3-(2-(4-(dimethylamino)benzylidene)hydrazinyl)-3-oxopropyl)-2-methyl-1H-pyrrole-3-carboxylate] yielded a melting point of 212 to 213.3 °C. This compound had an ABTS scavenging activity in data set [1] of 48%. In addition, the IC50 at 24 h in data set [2] stood at 56.3 µM.

As for `CCOC(=O)c1cc(-c2ccc(Br)cc2)n(CCC(=O)N/N=C/c2ccc(Cl)cc2)c1C` [8b, (E)-ethyl 5-(4-bromophenyl)-1-(3-(2-(4-chlorobenzylidene)hydrazinyl)-3-oxopropyl)-2-methyl-1H-pyrrole-3-carboxylate], the melting point is 181.4 to 184.6 °C. In addition, in data set [2], the concentration for half-maximal inhibition (IC50) at 24 h was determined as 57.4 µM.

`CCOC(=O)c1cc(-c2ccc(Br)cc2)n(CCC(=O)N/N=C/c2ccc([N+](=O)[O-])cc2)c1C` [8c, (E)-ethyl 5-(4-bromophenyl)-2-methyl-1-(3-(2-(4-nitrobenzylidene)hydrazinyl)-3-oxopropyl)-1H-pyrrole-3-carboxylate] had a melting point of 214.4 to 217.1 °C. Besides, the half-inhibitory concentration (IC50) at 24 h in data set [2] was 58.2 µM.

Take `CCOC(=O)c1cc(-c2ccc(Br)cc2)n(CCC(=O)N/N=C/c2cc(OC)c(O)c(OC)c2)c1C` [8d, (E)-ethyl 5-(4-bromophenyl)-1-(3-(2-(4-hydroxy-3,5-dimethoxybenzylidene) hydrazine-yl)-3-oxopropyl)-2-methyl-1H-pyrrole-3-carboxylate]: the melting point is 196.6 to 197.6 °C. Moreover, the DPPH scavenging activity in data set [5] amounted to 19%. The ABTS scavenging activity in data set [1] is recorded as 89%. Besides, the IC50 at 24 h in data set [2] worked out at 57.3 µM. Besides, the “toxicity relative to 7d (times higher)” value in the data set with SH-SY5Y cells [4] (from IC50 values) was 1.7 times.

In turn, `CCOC(=O)c1cc(-c2ccc(Br)cc2)n(CCC(=O)N/N=C/c2ccc(OC)cc2OC)c1C` [8e, (E)-ethyl 5-(4-bromophenyl)-1-(3-(2-(2,4-dimethoxybenzylidene)hydrazinyl)-3-oxopropyl)-2-methyl-1H-pyrrole-3-carboxylate] yielded a melting point of 170 to 171.9 °C. In data set [1], the “radical scavenging effect (in words)” value was “lack of radical scavenging effects”. For the same compound, the “protective effect” value in the data set on SH-SY5Y cells [3] is recorded as “lower antioxidant protection; also recorded: lower than melatonin”. Further, the half-maximal inhibitory concentration (IC50) at 24 h in data set [2] was 91.1 µM.

`COc1ccc2[nH]cc(CCNC(C)=O)c2c1` [Melatonin, reference compound]: the “protective effect” value in the data set on SH-SY5Y cells [3] is given as “dose-dependent protective effects”. The IC50 at 24 h in data set [2] was over 500 µM.

Take `Cc1c(C)c2c(c(C)c1O)CCC(C)(C(=O)O)O2` (stereo not drawn) [Trolox, 6-Hydroxy-2,5,7,8-tetramethylchroman-2-carboxylic acid, reference compound]: the DPPH scavenging activity in data set [5] came out at 94%.
